From BindingDB's records for doi:10.1021/acs.jmedchem.8b00705 (Zhejiang University, 2018)

Assay: Inhibition of alpha-crystallin B R120G mutant (unknown origin)-induced intracellular protein aggregation expressed in human HeLa cells or HLE-B3 cells incubated for 6 to 8 hrs by fluorescence microscopy relative to untreated control

Compound	EC50
C[C@H](CCCC(C)(C)O)[C@H]1CC[C@@]2(C)C3=C(CC[C@]12C)[C@@]1(C)CC[C@H](O)C(C)(C)[C@@H]1CC3	0.057 µM
CC(C)=CCC[C@@H](C)[C@H]1CC[C@@]2(C)C3=C(CC[C@]12C)[C@@]1(C)CC[C@H](O)C(C)(C)[C@@H]1CC3 [LANOSTEROL]	1.42 µM
C[C@H](CCCC(C)(C)O)[C@H]1CC[C@@]2(C)C3=C(CC[C@]12C)[C@@]1(C)CCC(=O)C(C)(C)[C@@H]1CC3	0.106 µM
C[C@H](CCCC(C)(C)O)[C@H]1CC[C@H]2[C@@H]3CC=C4C[C@@H](O)CC[C@]4(C)[C@H]3CC[C@]12C [(1S,2R,5S,10S,11S,14R,15R)-14-[(2R)-6-hydroxy-6-methylheptan-2-yl]-2,15-dimethyltetracyclo[8.7.0.0^{2,7}.0^{11,15}]heptadec-7-en-5-ol]	0.32 µM
C[C@H](CCCC(C)(C)O)[C@H]1CC[C@@]2(C)C3=C(CC[C@]12C)[C@@]1(C)C[C@@H](F)[C@H](O)C(C)(C)[C@@H]1CC3	0.018 µM

Next, values leading:

EC50	Compound
0.064 µM	C[C@H](CCCC(C)(C)O)[C@H]1CC[C@@]2(C)C3=CC[C@H]4C(C)(C)[C@@H](O)CC[C@]4(C)C3=CC[C@]12C
0.026 µM	C[C@H](CCCC(C)(C)O)[C@H]1CC[C@@]2(C)C3=C(CC[C@]12C)[C@@]1(C)C[C@@H](F)[C@@H](O)C(C)(C)[C@@H]1CC3
